This is an account of results in article PMC6269737, “Effect of Honokiol on Cytochrome P450 and UDP-Glucuronosyltransferase Enzyme Activities in Human Liver Microsomes” (Molecules, 2013).

The target of assay [1] is T1, CYP2B6 (Homo sapiens, UniProt P20813).
T1 sequence (P20813 1-491): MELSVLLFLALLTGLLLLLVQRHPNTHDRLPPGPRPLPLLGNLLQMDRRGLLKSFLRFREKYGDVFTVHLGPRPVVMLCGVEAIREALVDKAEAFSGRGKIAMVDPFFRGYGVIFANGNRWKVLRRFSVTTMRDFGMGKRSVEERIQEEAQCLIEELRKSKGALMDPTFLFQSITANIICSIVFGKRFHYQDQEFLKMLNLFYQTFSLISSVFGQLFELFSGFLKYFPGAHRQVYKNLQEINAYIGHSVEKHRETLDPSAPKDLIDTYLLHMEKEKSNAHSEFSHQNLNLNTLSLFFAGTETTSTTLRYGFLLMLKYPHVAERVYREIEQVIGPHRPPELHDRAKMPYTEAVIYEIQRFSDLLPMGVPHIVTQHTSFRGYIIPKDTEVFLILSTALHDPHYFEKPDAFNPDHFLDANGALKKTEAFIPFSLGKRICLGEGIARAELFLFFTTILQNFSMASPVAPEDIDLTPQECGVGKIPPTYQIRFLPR
The assay can be described thus: biochemical. The note with it: for IC50: IC50 (μM) of honokiol, Bupropion hydroxylation. As to the method: (§1) The inhibitory potential (IC50 values) of honokiol on CYP activities was evaluated in pooled human liver microsomes using liquid chromatography-tandem mass spectrometry (LC-MS/MS). […] Honokiol was dissolved in acetonitrile. […] After a 3 min preincubation at 37 °C, the reactions were initiated by addition of an NADP generating system and incubated for 15 min at 37 °C in a shaking water bath. The reaction was then stopped by placement of the tubes on ice and adding 100 μL of ice-cold methanol containing internal standards (^13C2, ^15N-acetaminophen for acetaminophen and N-deethylamodiaquine, and d9-1-hydroxybufuralol for 4-hydroxydiclofenac, 4-hydroxybupropion, 7-hydroxycoumarin, 4-hydroxymephenytoin, 1'-hydroxybufuralol, and 1'-hydroxymidazolam). The incubation mixtures were then centrifuged at 13,000 × g for 4 min. All incubations were performed in triplicate, and average values were used.
(§2) The reaction was initiated by the addition of the cocktail containing seven CYP probe substrates and bupropion.
(§3) The metabolites formed from the seven CYP cocktail substrates were simultaneously determined according to our previously described LC-MS/MS method with minor modification; the concentration of 4-hydroxybupropion for CYP2B6 activity was quantified separately by LC-MS/MS. A tandem mass spectrometer (TSQ Quantum Access, Thermo Scientific, San Jose, CA, USA) coupled with a Nanospace SI-2 LC system (Tokyo, Japan) was used. The column and autosampler temperatures were 50 °C and 6 °C, respectively. The mass spectrometer was equipped with an electrospray ionization (ESI) source and operated in positive ion mode. The ESI source settings for ionization of the metabolites were as follows: capillary voltage, 4200 V; vaporizer temperature, 350 °C; capillary temperature 330 °C; sheath gas pressure, 35 psi; auxiliary gas pressure, 15 psi. Quantification was performed by selected reaction monitoring (SRM) of [M+H]^+ ions and the related product ions for each metabolite. […] Analytical data were processed using Xcalibur® software (Thermo Scientific).
(§4) The incubation mixtures were centrifuged at 13,000 × g for 4 min, and the supernatants were diluted as follows: dilution of 20 μL supernatant with 180 μL of 25% methanol for CYP2C8; dilution of 50 μL supernatant with 50 μL of water for CYP2C9, CYP2C19, CYP2D6, and CYP1A2; and dilution of 20 μL supernatant with 80 μL of water for CYP2B6. Aliquots (5 μL) of the diluted supernatants were then analyzed by LC-MS/MS.
(§5) The apparent kinetic parameters for inhibitory potential (Ki values) were estimated from the fitted curves using Enzyme Kinetics Ver. 1.1 software (Systat Software Inc.).

Assay [2] concerns the target CYP2D6 (Homo sapiens, UniProt P10635). The experiment in a line: biochemical. To be noted: for IC50: IC50 (μM) of honokiol, Bufuralol 1'-hydroxylation. As to the method: as §1, §2, §3, §4, §5
The target of assay [3] is T2, UGT1A4 (Homo sapiens, UniProt P22310).
T2 sequence (P22310 29-534): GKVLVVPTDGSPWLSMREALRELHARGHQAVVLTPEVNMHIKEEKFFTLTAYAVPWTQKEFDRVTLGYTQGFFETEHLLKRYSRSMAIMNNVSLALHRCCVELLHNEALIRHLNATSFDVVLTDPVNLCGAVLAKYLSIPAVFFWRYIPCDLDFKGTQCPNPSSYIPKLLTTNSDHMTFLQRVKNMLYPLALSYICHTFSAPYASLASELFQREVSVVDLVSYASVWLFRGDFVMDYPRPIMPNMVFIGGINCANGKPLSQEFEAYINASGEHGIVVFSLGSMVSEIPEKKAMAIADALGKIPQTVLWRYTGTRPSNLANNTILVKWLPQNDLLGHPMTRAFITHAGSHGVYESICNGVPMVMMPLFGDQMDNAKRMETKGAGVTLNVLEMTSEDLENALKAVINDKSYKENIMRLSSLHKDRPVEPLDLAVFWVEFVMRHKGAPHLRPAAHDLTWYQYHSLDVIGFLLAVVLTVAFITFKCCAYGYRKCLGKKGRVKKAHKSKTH
The experiment in a line: UGT1A4-catalyzed trifluoperazine N-glucuronidation inhibition in pooled human liver microsomes. Format: in vitro ADME. To be noted: 5 μM trifluoperazine, pooled HLM (H161). As to the method: The inhibitory potency (IC50 value) of honokiol on UGT1A1-catalyzed 17β-estradiol 3-glucuronidation, UGT1A4-catalyzed trifluoperazine glucuronidation, UGT1A9-catalyzed propofol glucuronidation, and UGT2B7-catalyzed azidothymidine glucuronidation activities was determined in pooled human liver microsomes by LC-MS/MS [48]. […] Reactions were initiated by the addition of UDPGA (final concentration, 5 mM), and incubations were carried out at 37 °C in a shaking water bath for 30 min. Reactions were terminated by adding 100 μL of ice-cold methanol containing an internal standard (500 ng/mL ezetimibe for 17β-estradiol 3-glucuronide and propofol glucuronide; 30 ng/mL meloxicam for trifluoperazine glucuronide and azidothymidine glucuronide). The incubation mixtures were then centrifuged at 13,000 × g for 4 min, followed by dilution of 30 μL of the supernatant with 70 μL of water. An aliquot (5 μL) was injected onto the LC-MS/MS. All incubations were performed in triplicate and the mean values were used. Glucuronides produced from UGT isoform-specific substrates were determined by LC-MS/MS [49].
as §5

Setting [4] is: with preincubation, 30 min preincubation with NADPH.

Molecules are shown by their SMILES.

Sequence of CYP2D6 (P10635 whole entry): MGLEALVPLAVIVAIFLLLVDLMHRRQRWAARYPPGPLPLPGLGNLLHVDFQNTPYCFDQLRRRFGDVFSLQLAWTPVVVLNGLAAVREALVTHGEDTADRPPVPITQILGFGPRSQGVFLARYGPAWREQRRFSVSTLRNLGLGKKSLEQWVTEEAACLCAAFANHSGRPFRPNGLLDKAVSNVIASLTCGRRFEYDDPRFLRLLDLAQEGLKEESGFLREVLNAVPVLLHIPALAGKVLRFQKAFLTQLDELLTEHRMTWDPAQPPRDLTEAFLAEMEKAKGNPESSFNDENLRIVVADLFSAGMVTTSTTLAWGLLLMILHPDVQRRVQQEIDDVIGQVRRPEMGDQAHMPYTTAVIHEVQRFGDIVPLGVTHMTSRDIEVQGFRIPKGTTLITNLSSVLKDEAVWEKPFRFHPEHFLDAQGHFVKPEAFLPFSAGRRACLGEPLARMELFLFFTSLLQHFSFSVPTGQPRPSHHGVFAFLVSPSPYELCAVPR

Turning to `C=CCc1ccc(O)c(-c2ccc(O)c(CC=C)c2)c1` [honokiol, 2-(4-hydroxy-3-prop-2-enyl-phenyl)-4-prop-2-enyl-phenol], the Ki in assay [1] stood at 17.5 µM; in assay [2], 12 µM. The IC50 in assay [1] (no preincubation, 50 μM bupropion, pooled HLM (H161)) came to 13.8 µM; in assay [1] (setting [4]), 20.8 µM; in assay [2] (no preincubation, 5.0 μM bufuralol, pooled HLM (H161)) it was 14 µM; in assay [2] (setting [4]), 38.1 µM; in assay [3] it was 158 µM.

What is called Ki is a dissociation constant, usually derived from enzyme kinetics or from competition with a known ligand. A high value points to a looser hold on the target. As usually defined, the IC50 is the concentration that inhibits the measured activity by half. A high value points to weaker potency.
